# Results published in US4327114A, “Substituted 1,8-dihydroxy-9-(10H)anthracenones” (Boehringer Ingelheim GmbH, priority 1980, dated 1982).
# Entries after “also recorded” stand apart in the source; their conditions may differ.
# What was measured:
# rat = assay: Acute toxicity in the rat; type: in vivo
# Procedure: (§1) The acute toxicity was determined in the mouse and in the rat. Determined was the LD50, i.e. the dose after administration of which 50% of the animals died within 14 days, or it was determined how many of the 10 treated animals died within the period of observation.
# mouse = assay: Acute toxicity in the mouse; type: in vivo; details: 2000 mg/kg
# Procedure: as §1
# [1] = Stability under light irradiation; type: physicochemical; details: for decomposition under light: 30 minutes, 400 W high-pressure mercury vapor lamp, in toluene or xylene
# Procedure: Compound C and dithranol (A) in solution (toluene or xylene) were exposed for 30 minutes to a 400 W high-pressure mercury vapor lamp (Type HPM 12, Phillips), where the spectrum of light emission was changed by adding heavy metal salts.
# [2] = Penetration and metabolization in the skin in vitro; type: in vitro ADME, pig; details: thin-layer chromatography; for penetration into the layers of the skin: same carriers
# guinea pig = assay: Photo-sensitization in vivo on the guinea pig; details: 0.01% alcoholic solution, 3 weeks, 125 W mercury high-pressure lamp 10 minutes
# Procedure: Since some halogenated aromatic substances have a photo-sensitizing activity, the photo-sensitization of compound C was also tested in vivo on the guinea pig.
# Guinea pigs were treated for 3 weeks on 5 week-days with a 0.01% alcoholic solution of compound C. After 30 minutes each animal was exposed for 10 minutes to a 125 W mercury high-pressure lamp (ultra violet sun lamp). The irradiation was carried out in such a way that no UV-B erythema appeared.
# skin [3] = assay: Skin compatibility under occlusion, method of Mustakallio; type: in vivo; details: for concentrations producing discoloration and skin irritations: white vaseline
# Procedure: In a further test, according to the method of Mustakallio, compound A was applied at concentrations of 1, 2, 4, 8, 16, 32 mmols in white vaseline and allowed to remain on the skin for 4 hours under occlusion. Compounds C and K, however, were applied at concentrations of 4, 8, 16, 32, 64, 128 mmols, also in white vaseline, and allowed to remain on the skin for 16 hours under occlusion. […] This means that the novel compounds are more compatible by a factor of at least 64.
# [4] = Natural color of the substance (UV-absorption, FIG. 1); type: physicochemical; details: shortwave portion of visible light, beginning at 380 nm
# Excerpt: Topically administrable substances which are colored are undesirable for cosmetic reasons and also because the lingerie may become soiled. […] This is also expressed by the optic impression of the preparations. […] This is a further advantage compared with dithranol.
# [5] = test system: skin (forearms of volunteer human test subjects); assay: Orienting skin compatibility in humans (ointments on forearm); type: in vivo; details: for discoloration of the skin / skin irritation: 0.44% ointment, 16 hours, doubled to 0.88% after 3 days if no reaction
# Procedure: Ointments, each containing individually 0.44% of compounds […] and K were applied to the forearms of volunteer human test subjects, covered with bandage gauze and allowed to remain on the skin for 16 hours. After 16 hours the ointments were washed off with soap solution, and the skin irritation and discoloration, if any, were evaluated visually and photographed. Then, the test ointments were again administered and allowed to remain on the skin until the next day. Again, the reactions were evaluated and a new treatment was started.
# skin of guinea pigs = assay: Skin compatibility test on guinea pigs; type: in vivo, guinea pig (Perbright White strain); details: for Sum of the reactions divided by the number of animals: score 0 no irritation to 3 very strong erythema
# Procedure: Guinea pigs of the Perbright White strain, with a body weight of about 350 gm, were fed with standard guinea pig feed (Altromin 3022) and water ad lib.
# During the test, the animals were kept in single cages. The test substances, which were dissolved in a well compatible solvent, were applied to the skin of the animals (diameter of the test area 3.5 cm) daily for 3 weeks, from Monday to Friday. The animals were shaved each Monday, Wednesday and Friday in the early morning, the treatment with the test substances was performed in the early afternoon. Immediately before administration of the substance, the skin reaction was tested. The evaluation was carried out visually, and erythema, edema, and mycosis of the skin were considered.
# The following evaluation was made:
# 2: strong erythema with beginning edema
# 3: very strong erythema with edema or beginning necrosis.
# The numerical sum of the reactions was used for the total evaluation of a group of animals.
# guinea pigs = assay: Sensitizing activity on guinea pigs; type: in vivo, guinea pig (Perbright White strain)
# Procedure: The sensitizing activity was tested 2 weeks after the skin compatibility test with 1:10 to 1:50 of the originally used concentrations behind the ears.
# [6] = molecular target: glucose-6-phosphate-dihydrogenase; assay: Inhibition of glucose-6-phosphate-dihydrogenase after 120 minutes incubation; type: biochemical; details: 37° C., pH 7.6, REED and MUENCH
# Procedure: The inhibiting effect upon enzymes was determined by measurement of the inhibition of glucose-6-phosphate-dihydrogenase.
# The following equilibrium was observed: [drawing 5] (NADP-nicotinamide-adenine-dinucleotide-phosphate). The rate of formation of NADPH is a measure of the enzyme activity; it can be measured by means of the increase in extinction at […] per unit of time.
# 0.025 ml of glucose-6-phosphate-dihydrogenase were diluted to 10 ml with distilled water (Solution I). 100 mg of nicotinamide-adenine-dinucleotide-phosphate were dissolved in 13 ml of distilled water (Solution II). 47.2 mg of glucose-6-phosphate were dissolved in another 10 ml of distilled water (Solution III). Besides this, a buffer solution (Solution IV) was prepared as follows:
# 0.28 gm of triethanolamine hydrochloride and 1.461 gm of ethylene-diamine tetraacetic acid disodium salt were dissolved in 1 liter of distilled water, and the solution was adjusted to pH 7.6 with sodium hydroxide. The substance to be tested was dissolved in dimethyl formamide or ethanol (Solution V). Tested end-concentrations: 25, 12.5, 6.25, 3.125, 1.56 and 0.78 μg/ml.
# A mixture of 0.1 ml of Solution I, 0.1 ml of Solution II, 2.67 ml of Solution IV and 0.03 ml of Solution V was kept at 37° C. for 120 minutes. After addition of 0.1 ml of Solution III and thorough mixing, the change in extinction was measured photometrically at 366 nm over 3 minutes. The inhibition values were calculated from the average values of 3 measurements (as change of extinction per minute), compared to controls to which the pure solvent was added as inhibitor solution. The ED50 was calculated according to the method of REED and MUENCH from the inhibiting values of the different concentrations. The following table contains the values thus determined: […]
# Solubility remark = type: physicochemical
# [7] = Acute toxicity in the rat; type: in vivo; details: in vivo, ip, within 14 days
# Procedure: as §1
# [8] = Acute toxicity in the mouse; type: in vivo; details: in vivo, within 14 days
# Procedure: as §1
# skin [9] = details: literature or prior use; listed as dithranol; cited from earlier work
# psoriasis = details: literature or prior use; cited from earlier work
# [10] = prior use; cited from earlier work
structure (smiles),measurement,setting,value
"O=C1c2c(O)ccc(Cl)c2Cc2c(Cl)ccc(O)c21 [Compound C, 4,5-Dichloro-1,8-dihydroxy-9-(10H)anthracenone]",Number of dead animals,"rat; i.p., 2000 mg/kg",0/10
same,Number of dead animals,"rat; p.o., 2000 mg/kg",0/10
same,Number of dead animals,"rat; sc., 2000 mg/kg",0/10
same,Number of dead animals,mouse; i.p.,1/10
same,Number of dead animals,mouse; p.o.,0/10
same,Number of dead animals,mouse; sc.,6/10
same,decomposition under light,[1],no decomposition could be determined
same,chlorination of toluene (radical formation),"[1]; gas-chromatographic, sensitivity 0.0001%",no chlorination of toluene could be found
same,penetration into the layers of the skin,[2],penetrate to an approximately equal extent
same,metabolization in the skin,[2],metabolized in a similar manner
same,photo-sensitizing activity,guinea pig,No photo-sensitizing activity could be determined
same,skin irritations or discolorations,"skin [3]; 4 to 128 mmols in white vaseline, after 4 and after 16 hours of occlusion",no skin irritations or discolorations could be observed
same,UV-absorption / yellow color,[4],significantly less UV-absorption
same,discoloration of the skin,[5],no skin irritation or discoloration of the skin
same,skin irritation,[5],no skin irritation
same,Sum of the reactions divided by the number of animals,"skin of guinea pigs; 0.03%, end of 1st week",0
same,Sum of the reactions divided by the number of animals,"skin of guinea pigs; 0.03%, end of 2nd week",0
same,Sum of the reactions divided by the number of animals,"skin of guinea pigs; 0.03%, end of 3rd week",0.04
same,Sum of the reactions divided by the number of animals,"skin of guinea pigs; 0.045%, end of 1st week",0.166
same,Sum of the reactions divided by the number of animals,"skin of guinea pigs; 0.045%, end of 2nd week",0.66
same,Sum of the reactions divided by the number of animals,"skin of guinea pigs; 0.045%, end of 3rd week",0.41
same,skin compatibility compared with compound A,skin of guinea pigs; Table 3,considerably more skin-compatible than compound A
same,sensitization,"guinea pigs; 1:10 to 1:50 of the original concentrations, behind the ears",no sensitization
same,"ED50, inhibition of incubation after 120 minutes",[6],4.63 mg/L
CC(C)(C)c1cc(Br)c(O)c2c1Cc1c(Br)cc(Br)c(O)c1C2=O,solubility,Solubility remark,inadequate solubility
"O=C1c2c(O)cccc2Cc2cccc(O)c21 [Compound A, 1,8-Dihydroxy-9-(10H)anthracenone]",Number of dead animals,"rat; p.o., 2000 mg/kg",1/10
same,Number of dead animals,"rat; sc., 1000 mg/kg",2/10
same,LD50 at 336 h,[7],5.19 mg/kg
same,Number of dead animals,mouse; p.o.,2/10
same,LD50 at 336 h,[8]; ip,2.42 mg/kg
same,LD50 at 336 h,[8]; sc.,2.22 mg/kg
same,decomposition under light,[1],nearly completely decomposed
same,skin irritation and/or discoloration,skin [9],"strong, irreversible discoloration of skin and lingerie; also recorded: strong skin-irritating activity"
same,penetration into the layers of the skin,[2],penetrate to an approximately equal extent
same,metabolization in the skin,[2],metabolized in a similar manner
same,antipsoriatic activity,psoriasis,reliable activity
same,concentrations producing discoloration and skin irritations,skin [3]; 4 hours of occlusion,≥ 2 mmols
same,concentrations producing discoloration and skin irritations,skin [3]; 16 hours of occlusion,≥ 1 mmols
same,systemic side-effects,[10],lack of systemic side-effects
same,discoloration of the skin,[5],brownish-violet discoloration after only the second application
same,skin irritation,[5],strong skin irritation with erythema
same,later changes of the treated skin area,[5]; ointment test,peeled after about one week
same,Sum of the reactions divided by the number of animals,"skin of guinea pigs; 0.015%, end of 1st week",0.66
same,Sum of the reactions divided by the number of animals,"skin of guinea pigs; 0.015%, end of 2nd week",0.33
same,Sum of the reactions divided by the number of animals,"skin of guinea pigs; 0.015%, end of 3rd week",0.33
same,Sum of the reactions divided by the number of animals,"skin of guinea pigs; 0.03%, end of 1st week",1.3
same,Sum of the reactions divided by the number of animals,"skin of guinea pigs; 0.03%, end of 2nd week",2.16
same,Sum of the reactions divided by the number of animals,"skin of guinea pigs; 0.03%, end of 3rd week",2.25
same,sensitized animals,"guinea pigs; 0.03%, tested 2 weeks after skin compatibility test",3 out of 12
